Test results taken from patent publication US9822124B2, “Bicyclic heteroaromatic carboxamide compounds useful as Pim kinase inhibitors” (Incyte Corporation, priority 2014, dated 2017).

Columns and labels:
Format in all cases: biochemical
Pim-1 = Pim-1 (Homo sapiens (Human), UniProt P11309); assay: Pim-1 kinase assay (AlphaScreen, Biotin-labeled BAD peptide substrate); details: 1 mM ATP; read-out: Pim1 IC50
Procedure: (§1) Pim-1 and Pim-3 kinase assays—20 μL reactions were run in white 384 well polystyrene plates dotted with 0.8 μL compound/DMSO in the assay buffer (50 mM Tris, pH 7.5, 0.01% Tween-20, 5 mM MgCl2, 0.01% BSA, 5 mM DTT), containing 0.05 μM Biotin-labeled BAD peptide substrate (AnaSpec 62269), 1 mM ATP, and […] (Pim-1, Invitrogen PV3503) or […] (Pim-3, Millipore 14-738) enzyme for 1 h at 25° C. Reactions were stopped by addition of 10 μL STOP Buffer (150 mM Tris, pH=7.5, 150 mM NaCl, 75 mM EDTA, 0.01% Tween-20, 0.3% BSA) supplemented with Phospho-Bad (Ser112) Antibody (Cell Signaling 9291) diluted 666-fold, and Streptavidin donor beads (PerkinElmer 6760002) along with Protein-A acceptor beads (PerkinElmer 6760137) at 15 μg/mL each. Supplementation of the STOP buffer with beads and stopping the reactions were done under reduced light. Prior to the stopping reactions STOP buffer with beads was preincubated for 1 h in the dark at room temperature. After stopping the reactions, plates were incubated for 1 h in the dark at room temperature before reading on a PHERAstar FS plate reader (BMG Labtech) under reduced light.

Pim-2 = Pim-2 (Homo sapiens (Human), UniProt Q9P1W9); assay: Pim-2 kinase assay (TR-FRET, Fluorescein-labeled CREBtide peptide substrate); details: 1 mM ATP; read-out: Pim2 IC50
Procedure: Pim-2 kinase assay—20 μL reactions were run in white 384 well polystyrene plates dotted with 0.8 μL compound/DMSO in the assay buffer (50 mM Tris, pH 7.5, 0.01% Tween-20, 5 mM MgCl2, 0.01% BSA, 5 mM DTT), containing 0.05 μM Fluorescein-labeled CREBtide peptide substrate (Invitrogen PV3508), 1 mM ATP, and 1 nM enzyme (Invitrogen PV3649) for 2 h at 25° C. Reactions were stopped by addition of 10 μL TR-FRET Dilution Buffer (Invitrogen PV3574) with 30 mM EDTA and 1.5 nM LanthaScreen Tb-CREB pSer133 antibody (Invitrogen PV3566). After 30 min. incubation at room temperature, plates were read on a PHERAstar FS plate reader (BMG Labtech).

Pim-3 = Pim-3 (Homo sapiens (Human), UniProt Q86V86); assay: Pim-3 kinase assay (AlphaScreen, Biotin-labeled BAD peptide substrate); details: 1 mM ATP; read-out: Pim3 IC50
Procedure: as §1

Chain of Pim-2 (Q9P1W9 whole entry): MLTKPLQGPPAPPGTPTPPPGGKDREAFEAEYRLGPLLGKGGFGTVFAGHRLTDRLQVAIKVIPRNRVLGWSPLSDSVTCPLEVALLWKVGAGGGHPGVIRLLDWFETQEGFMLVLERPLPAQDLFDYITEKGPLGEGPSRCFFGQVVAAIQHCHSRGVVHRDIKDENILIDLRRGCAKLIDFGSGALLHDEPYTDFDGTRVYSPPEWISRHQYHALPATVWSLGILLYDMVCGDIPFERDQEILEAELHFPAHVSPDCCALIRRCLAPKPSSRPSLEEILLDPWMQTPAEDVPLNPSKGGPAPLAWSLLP
Chain of Pim-1 (P11309 whole entry): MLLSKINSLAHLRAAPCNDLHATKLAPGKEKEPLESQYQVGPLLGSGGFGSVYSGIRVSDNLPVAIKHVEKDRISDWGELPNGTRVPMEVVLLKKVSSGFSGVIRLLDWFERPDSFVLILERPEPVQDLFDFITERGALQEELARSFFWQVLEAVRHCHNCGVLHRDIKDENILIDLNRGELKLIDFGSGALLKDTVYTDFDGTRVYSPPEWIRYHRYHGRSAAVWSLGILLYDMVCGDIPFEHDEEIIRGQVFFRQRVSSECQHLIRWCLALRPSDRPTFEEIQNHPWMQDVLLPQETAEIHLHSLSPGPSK

Row | SMILES | IC50 (Pim-1) [nM] | IC50 (Pim-2) [nM] | IC50 (Pim-3) [nM]
1 | COc1ccc(-c2coc3ccc(C(=O)Nc4cnccc4N4C[C@@H](N)[C@H](O)[C@@H](C)C4)nc23)cn1 [Example 14, N-(4-((3R,4R,5S)-3-Amino-4-hydroxy-5-methylpiperidin-1-yl)pyridin-3-yl)-3-(6-methoxypyridin-3-yl)furo[3,2-b]pyridine-5-carboxamide] | ≤ 10 | 1000 to 10000 | 10 to 50
2 | C[C@H]1CN(c2ccncc2NC(=O)c2ccc3occ(-c4ccccc4F)c3n2)C[C@@H](N)[C@@H]1O [Example 12, N-(4-((3R,4R,5S)-3-Amino-4-hydroxy-5-methylpiperidin-1-yl)pyridin-3-yl)-3-(2-fluorophenyl)furo[3,2-b]pyridine-5-carboxamide] | ≤ 10 | 100 to 1000 | ≤ 10
3 | C[C@H]1CN(c2ccncc2NC(=O)c2ccc3occ(C4CCN(C)CC4)c3n2)C[C@@H](N)[C@@H]1O [Example 16, N-(4-((3R,4R,5S)-3-Amino-4-hydroxy-5-methylpiperidin-1-yl)pyridin-3-yl)-3-(1-methylpiperidin-4-yl)furo[3,2-b]pyridine-5-carboxamide] | 10 to 50 | > 2000 | > 40
4 | C[C@@H]1C[C@H](N)CN(c2ccncc2NC(=O)c2ccc3sc(-c4ccc(N5CCOCC5)nc4)cc3n2)C1 [Example 56, N-(4-((3S,5R)-3-Amino-5-methylpiperidin-1-yl)pyridin-3-yl)-2-(6-morpholinopyridin-3-yl)thieno[3,2-b]pyridine-5-carboxamide] | ≤ 10 | 100 to 1000 | ≤ 10
5 | COc1ccc(-c2coc3ccc(C(=O)Nc4cnccc4N4C[C@H](C)C[C@H](N)C4)nc23)cn1 [Example 23, N-(4-((3S,5R)-3-Amino-5-methylpiperidin-1-yl)pyridin-3-yl)-3-(6-methoxypyridin-3-yl)furo[3,2-b]pyridine-5-carboxamide] | ≤ 10 | 1000 to 10000 | 10 to 50
6 | COc1ccc(F)c(-c2coc3ccc(C(=O)Nc4cnccc4N4C[C@H](C)C[C@H](N)C4)nc23)c1F [Example 22, N-(4-((3S,5R)-3-Amino-5-methylpiperidin-1-yl)pyridin-3-yl)-3-(2,6-difluoro-3-methoxyphenyl)furo[3,2-b]pyridine-5-carboxamide] | ≤ 10 | ≤ 100 | ≤ 10
7 | C[C@H]1CN(c2ccncc2NC(=O)c2ccc3cc([C@@H]4C[C@H]4c4ccccc4)oc3n2)C[C@@H](N)[C@@H]1O [Example 71, N-(4-((3R,4R,5S)-3-Amino-4-hydroxy-5-methylpiperidin-1-yl)pyridin-3-yl)-2-((1R,2R)-2-phenylcyclopropyl)furo[2,3-b]pyridine-6-carboxamide] | ≤ 10 | ≤ 100 | ≤ 10
8 | CCCc1cc2nc(C(=O)Nc3cnccc3N3C[C@H](C)C[C@H](N)C3)ccc2o1 [Example 1, N-(4-((3S,5R)-3-Amino-5-methylpiperidin-1-yl)pyridin-3-yl)-2-propylfuro[3,2-b]pyridine-5-carboxamide] | ≤ 10 | 100 to 1000 | ≤ 10
9 | Cc1cc2nc(C(=O)Nc3cnccc3N3C[C@@H](N)[C@H](O)[C@@H](C)C3)ccc2s1 [Example 49, N-(4-((3R,4R,5S)-3-Amino-4-hydroxy-5-methylpiperidin-1-yl)pyridin-3-yl)-2-methylthieno[3,2-b]pyridine-5-carboxamide] | ≤ 10 | 100 to 1000 | ≤ 10
10 | CCc1cc2nc(C(=O)Nc3cnccc3N3C[C@@H](N)[C@H](O)[C@@H](C)C3)ccc2s1 [Example 85, N-(4-((3R,4R,5S)-3-amino-4-hydroxy-5-methylpiperidin-1-yl)pyridin-3-yl)-2-ethylthieno[3,2-b]pyridine-5-carboxamide] | ≤ 10 | ≤ 100 | ≤ 10
11 | C[C@@H]1C[C@H](N)C[C@H](c2ccncc2NC(=O)c2ccn3ncc(-c4c(F)cc(CO)cc4F)c3n2)C1 [Example 81, N-{4-[(1R,3S,5S)-3-Amino-5-methylcyclohexyl]pyridin-3-yl}-3-[2,6-difluoro-4-(hydroxymethyl)phenyl]pyrazolo[1,5-a]pyrimidine-5-carboxamide] | ≤ 10 | ≤ 100 | ≤ 10
12 | CC(C)c1cnn2ccc(C(=O)Nc3cnccc3[C@@H]3C[C@H](C)C[C@H](N)C3)nc12 [Example 82, N-{4-[(1R,3S,5S)-3-Amino-5-methylcyclohexyl]pyridin-3-yl}-3-isopropylpyrazolo[1,5-a]pyrimidine-5-carboxamide] | ≤ 10 | 1000 to 10000 | 10 to 50
13 | C[C@@H]1C[C@H](N)CN(c2ccncc2NC(=O)c2ccc3sc(-c4c(F)cccc4F)cc3n2)C1 [Example 52, N-(4-((3S,5R)-3-Amino-5-methylpiperidin-1-yl)pyridin-3-yl)-2-(2,6-difluorophenyl)thieno[3,2-b]pyridine-5-carboxamide] | ≤ 10 | 100 to 1000 | ≤ 10
14 | N[C@H]1CCCN(c2ccncc2NC(=O)c2ccc3occ(-c4c(F)cccc4F)c3n2)C1 [Example 37, (S)-N-(4-(3-Aminopiperidin-1-yl)pyridin-3-yl)-3-(2,6-difluorophenyl)furo[3,2-b]pyridine-5-carboxamide] | ≤ 10 | ≤ 100 | ≤ 10
15 | C[C@@H]1C[C@H](N)CN(c2ccncc2NC(=O)c2ccc3cc(C4CC4)oc3n2)C1 [Example 70, N-{4-[(3S,5R)-3-Amino-5-methylpiperidin-1-yl]pyridin-3-yl}-2-cyclopropylfuro[2,3-b]pyridine-6-carboxamide] | ≤ 10 | ≤ 100 | ≤ 10
16 | COc1ccc(-c2cc3nc(C(=O)Nc4cnccc4N4C[C@@H](N)[C@H](O)[C@@H](C)C4)ccc3o2)cn1 [Example 7, N-(4-((3R,4R,5S)-3-Amino-4-hydroxy-5-methylpiperidin-1-yl)pyridin-3-yl)-2-(6-methoxypyridin-3-yl)furo[3,2-b]pyridine-5-carboxamide] | ≤ 10 | > 2000 | ≤ 10
17 | COc1ccc(-c2cc3nc(C(=O)Nc4cnccc4N4C[C@H](C)C[C@H](N)C4)ccc3s2)cn1 [Example 55, N-(4-((3S,5R)-3-Amino-5-methylpiperidin-1-yl)pyridin-3-yl)-2-(6-methoxypyridin-3-yl)thieno[3,2-b]pyridine-5-carboxamide] | ≤ 10 | 100 to 1000 | ≤ 10
18 | C[C@@H]1C[C@H](N)CN(c2ccncc2NC(=O)c2ccc3sc(Cc4ccccc4)cc3n2)C1 [Example 54, N-(4-((3S,5R)-3-Amino-5-methylpiperidin-1-yl)pyridin-3-yl)-2-benzylthieno[3,2-b]pyridine-5-carboxamide] | ≤ 10 | 100 to 1000 | ≤ 10
19 | C[C@H]1CN(c2ccncc2NC(=O)c2ccc3ccn(C4CCC4)c3n2)C[C@@H](N)[C@@H]1O [Example 77, N-{4-[(3R,4R,5S)-3-Amino-4-hydroxy-5-methylpiperidin-1-yl]pyridin-3-yl}-1-cyclobutyl-1H-pyrrolo[2,3-b]pyridine-6-carboxamide] | ≤ 10 | 1000 to 10000 | ≤ 10
20 | CC(C)c1coc2ccc(C(=O)Nc3cnccc3N3C[C@H](C)C[C@H](N)C3)nc12 [Example 18, N-(4-((3S,5R)-3-Amino-5-methylpiperidin-1-yl)pyridin-3-yl)-3-isopropylfuro[3,2-b]pyridine-5-carboxamide] | ≤ 10 | ≤ 100 | ≤ 10
21 | COc1cc(F)c(-c2cc3nc(C(=O)Nc4cnccc4N4C[C@H](C)C[C@H](N)C4)ccc3s2)c(F)c1 [Example 57, N-(4-((3S,5R)-3-Amino-5-methylpiperidin-1-yl)pyridin-3-yl)-2-(2,6-difluoro-4-methoxyphenyl)thieno[3,2-b]pyridine-5-carboxamide] | ≤ 10 | 100 to 1000 | ≤ 10
22 | C[C@@H]1C[C@H](N)CN(c2ccncc2NC(=O)c2ccc3occ(-c4ccccc4F)c3n2)C1 [Example 21, N-(4-((3S,5R)-3-Amino-5-methylpiperidin-1-yl)pyridin-3-yl)-3-(2-fluorophenyl)furo[3,2-b]pyridine-5-carboxamide] | ≤ 10 | ≤ 100 | ≤ 10
23 | CC(C)c1cc2nc(C(=O)Nc3cnccc3N3C[C@@H](N)[C@H](O)[C@@H](C)C3)ccc2s1 [Example 39, N-(4-((3R,4R,5S)-3-Amino-4-hydroxy-5-methylpiperidin-1-yl)pyridin-3-yl)-2-isopropylthieno[3,2-b]pyridine-5-carboxamide] | ≤ 10 | ≤ 100 | ≤ 10
